Measurements taken from US20060079453A1, “Hla binding peptides and their uses” (priority 2002, published 2006).
Read-outs that look alike come from different tables or passages of the source. No end group written: not given here.

What was measured:
HLA-A*2301 = HLA-A*2301 (Homo sapiens, UniProt P04439, D101N/D140Y/D185E/E176V/E190D/F33S/G103R/G107R/H175R/I119L/I121M/I306V/K168Q/K335N/L105A/L300P/N151K/N90K/P307H/Q86E/Q94H/R106L/R138H/R89G/T104I/T345S/V100E/W191G/Y123F); assay: biochemical; assay type: binding
HLA-A*2902 = HLA-A*2902 (Homo sapiens, UniProt P04439, A270S/D101N/D185E/E176V/E277Q/E87Q/F33T/G231S/H175R/I121M/I218V/I322F/K168Q/L300P/L318F/M331R/P208A/P217A/Q86L/T323A/T345S/V100A/V358M); assay: MHC molecular binding / Capture assay, IC50: A*2902
HLA-A*3002 = HLA-A*3002 (Homo sapiens, UniProt P04439, D101N/D140H/D185E/E176R/F33S/G80R/H175R/K168Q/Q94H/R138E/R41S/V100E); assay: biochemical; assay type: binding
HLA-A*2402 = HLA-A*2402 (Homo sapiens, UniProt P04439, D101N/D140Y/D185E/E176V/E190D/F33S/G103R/G107R/I119L/I121M/I306V/K335N/L105A/L180Q/L300P/N151K/N90K/Q86E/Q94H/R106L/R138H/R89G/T104I/T345S/V100E/W191G/Y123F); assay: MHC molecular binding / Capture assay, IC50: A*2402
HLA-B*4001 = HLA-B*4001 (Homo sapiens, UniProt P01889, A65T/A93T/A95T/D138N/D98Y/E176V/E69K/N87E/Q56L/Q94N/R180L/S121R/S35A/S48T/T167S/V36M/W171L/Y33H/Y91S); assay: biochemical; assay type: binding
HLA-B*4501 = HLA-B*4501 (Homo sapiens, UniProt P01889, A329T/A65T/A93T/A95T/C349S/D138N/D201E/D98Y/E176V/E187L/E204Q/E69K/H137Y/K202T/L119W/N87E/Q56L/Q94N/R155S/R180D/S121R/S35A/S48T/V127L/V306I/V36M/W191S/Y140L/Y33H/Y91S); assay: biochemical; assay type: binding
HLA-B*4002 = HLA-B*4002 (Homo sapiens, UniProt P01889, A65T/A93T/A95T/D138N/D201E/D98Y/E176V/E204Q/E69K/K202T/N87E/Q56L/Q94N/R180L/S48T/Y33H/Y91S); assay: biochemical; assay type: binding
HLA-B*1801 = HLA-B*1801 (Homo sapiens, UniProt P01889, A329T/A93T/A95T/C349S/D201E/D54G/D98Y/E176V/E187T/E204Q/E69T/K202T/Q94N/R155S/R180L/S121R/V306I/Y140S/Y195H/Y33H/Y91S); assay: biochemical; assay type: binding
HLA-B*4402 = HLA-B*4402 (Homo sapiens, UniProt P01889, A223V/A65T/A93T/A95T/D201E/D98Y/E176V/E187L/E204Q/E69K/G107R/H137Y/K202T/L105A/L119I/N104T/N87E/Q56L/Q94N/R106L/R155S/R180D/S101N/S121R/S35A/S48T/T118I/V36M/W191S/Y140D/Y91S); assay: biochemical; assay type: binding
[1] = read-out: A*2301 binding affinity (IC50)
[2] = read-out: A*2402 binding affinity (IC50)

Compound | IC50 (HLA-A*2301) [nM] | IC50 (HLA-A*2402) [nM] | IC50 (HLA-B*4001) [nM] | IC50 (HLA-B*4501) [nM] | IC50 (HLA-B*1801) [nM] | other results
CC(C)C[C@H](NC(=O)[C@H](Cc1c[nH]c2ccccc12)NC(=O)[C@@H]1CCCN1C(=O)[C@H](Cc1ccccc1)NC(=O)[C@H](CO)NC(=O)[C@@H](NC(=O)[C@H](Cc1ccc(O)cc1)NC(=O)[C@@H](N)CCCCN)[C@@H](C)O)C(=O)O | 177 | 208 |  |  |  | IC50 (HLA-A*2902): > 172000 nM; IC50 (HLA-A*2902; Binding affinity to A*2902 (expressed as an IC50)): > 172000 nM; IC50 (HLA-A*3002; Binding affinity to A*3002 (expressed as an IC50)): 346 nM
ADLMGYIPL |  |  |  |  |  | IC50 (HLA-B*4001; B*4001): 959 nM; IC50 (HLA-B*4501; B*4501): > 49000 nM; IC50 (HLA-B*4002; B*4002): 4.7 nM; IC50 (HLA-B*1801; B*1801): > 7620 nM; IC50 (HLA-B*4402; B*4402): > 21400 nM
AEFLWVTVY |  |  | 183 | 472 | 131 | IC50 (HLA-B*4002): 240 nM; IC50 (HLA-B*4402): 1010 nM
AEKLWVTVY |  |  | 18300 | 219 |  | IC50 (HLA-B*4402): 168 nM
AENFWVTVY |  |  | 1390 | 289 |  | IC50 (HLA-B*4002): 542 nM
AENLFVTVY |  |  | 970 | 232 | 29 | IC50 (HLA-B*4002): 334 nM
AENLPVTVY |  |  | 205 | 246 | 20 | IC50 (HLA-B*4402): 356 nM
AENLWVTDY |  |  | 930 | 328 | 1000 | IC50 (HLA-B*4402): 191 nM
AENLWVTKY |  |  | 1010 | 201 | 511 | IC50 (HLA-B*4002): 2000 nM
AENLWVTLY |  |  |  | 349 | 392 | IC50 (HLA-B*4002): 731 nM; IC50 (HLA-B*4402): 199 nM
AENLWVTVG |  |  | 861 | 35 | 39700 | IC50 (HLA-B*4002): 47 nM
AENLWVTVH |  |  | 493 | 120 |  | IC50 (HLA-B*4002): 151 nM
AENLWVTVS |  |  |  | 34 | 25700 | IC50 (HLA-B*4402): 4220 nM
AENLWVTVT |  |  | 947 | 10 |  | IC50 (HLA-B*4002): 7.8 nM; IC50 (HLA-B*4402): 2700 nM
AENNWVTVY |  |  |  | 99 |  | 
AENVWVTVY |  |  | 2240 | 737 |  | IC50 (HLA-B*4002): 386 nM
AEPAAEGVGA |  |  | 4120 | 104 | > 8120 | IC50 (HLA-B*4402): > 22600 nM

Compound | IC50 (HLA-A*2301) [nM] | IC50 (HLA-A*2402) [nM] | IC50 (HLA-B*4001) [nM] | IC50 (HLA-B*4501) [nM] | IC50 (HLA-B*1801) [nM] | other results
AEPAAEGVGAV |  |  | 20400 | 1500 | > 8610 | IC50 (HLA-B*4402): > 23900 nM
AFADLTVVF | 30 | 203 |  |  |  | IC50 (HLA-A*2902): 779 nM; IC50 (HLA-A*3002): 137 nM
AFKDLCIVF | 16 | 284 |  |  |  | IC50 (HLA-A*2902): 5850 nM
AFKDLFVVF | 6.8 | 294 |  |  |  | IC50 (HLA-A*2902): 3050 nM; IC50 (HLA-A*3002): 829 nM
AFRDLCIVF | 369 | 1010 |  |  |  | IC50 (HLA-A*2902): 6720 nM; IC50 (HLA-A*3002): 3300 nM
AYKDLFVVY | 905 | 1550 |  |  |  | IC50 (HLA-A*2902): 639 nM; IC50 (HLA-A*3002): 1.3 nM
AYRDLCIVY | 1480 | 2090 |  |  |  | IC50 (HLA-A*2902): 7120 nM; IC50 (HLA-A*3002): 66 nM
CEKCSKPCARV |  |  |  |  |  | IC50 (HLA-B*4501; read-out: B*4501): 1560 nM
DEIGVIDLY |  |  |  |  |  | IC50 (HLA-B*4001; B*4001): > 114000 nM; IC50 (HLA-B*4501; B*4501): > 49000 nM; IC50 (HLA-B*4002; B*4002): > 77300 nM; IC50 (HLA-B*4402; B*4402): 707 nM
EYRHYQYSF | 2.3 | 21 |  |  |  | IC50 (HLA-A*2902): 13700 nM; IC50 (HLA-A*3002): 430 nM
FYSKVRKYRF | 13 | 18 |  |  |  | IC50 (HLA-A*3002): 1230 nM
FYSRIRELRF | 1.6 | 11 |  |  |  | IC50 (HLA-A*2902): 83 nM; IC50 (HLA-A*3002): 12600 nM
IEDPPYNSL |  |  | 16 | 18700 | 35500 | IC50 (HLA-B*4002): 688 nM
IIFHFFLFLL |  |  |  |  |  | IC50 (HLA-A*2301; [1]): 80 nM; IC50 (HLA-A*2402; [2]): 208 nM
IYGPGPGLIIF |  |  |  |  |  | IC50 (HLA-A*2301; [1]): 8 nM; IC50 (HLA-A*2402; [2]): 7.4 nM
KFLFTDLRF | 0.74 | 12 |  |  |  | IC50 (HLA-A*2902): 44 nM; IC50 (HLA-A*3002): 152 nM
KIFIKSLFHI |  |  |  |  |  | IC50 (HLA-A*2301; [1]): 2 nM; IC50 (HLA-A*2902; read-out: A*2902 binding affinity (IC50)): > 50000 nM; IC50 (HLA-A*2402; [2]): 4.1 nM
